Data from patent publication US20260373119A1, “NOVEL COMPOUND, AND COMPOSITION FOR PREVENTING OR TREATING HER2-POSITIVE CANCER, COMPRISING SAME” (EWHA UNIVERSITY - INDUSTRY COLLABORATION FOUNDATION, priority 2022, published 2026).

Key:
MED23^D400A/H449G = biological target: T1, MED23^D400A/H449G (Homo sapiens, UniProt Q9ULK4, D400A/H449G); assay: LC-MS/MS protein-small molecule interaction, double mutant; assay type: binding; conditions: FLAG pulldown
T1 construct: FLAG pulldown, LC-MS/MS
Experimental: HEK293 cells were seeded in a […] and incubated until they reached 70-80% confluency. The cells were transfected with p3Xflag-myc-CMV26-MED23^WT and p3Xflag-myc-CMV26-MED23^D400A/H449G plasmids for 24 hours, followed by lysis to obtain protein extracts. To isolate the candidate compound (YK1) bound to MED23, total lysates were incubated with YK1 for 4 hours and subsequently subjected to pulldown using FLAG-agarose beads (Sigma Aldrich, USA). The precipitated beads were washed at least three times to completely remove unbound compounds. To separate the candidate compound from the precipitated MED23, 50 μL of the sample was extracted with 1 mL of acetonitrile and centrifuged at 13,000 rpm at 4 °C for 10 minutes. The supernatant (1,000 μL) from each sample was transferred to a new tube and dried under nitrogen gas at 37 °C. For YK1 analysis, the residue was dissolved in 50 μL of ACN and vortexed for 10 minutes. […] The mixture was then extracted with 450 μL of ACN by ultrasonic treatment and vortex mixing. The candidate compound bound to MED23 was finally analyzed using an Agilent 6460 triple quadrupole mass spectrometer (Agilent Technologies, USA).

[1] = tested on: NCI-N87 (HER2-positive gastric cancer cell line); assay: antiproliferative effect, NCI-N87; assay type: cell-based; conditions: 72 hours
Experimental: The antiproliferative effects were measured after treating Compounds 1 to 22 for 72 hours on HCT15 (HER2-positive colorectal cancer cell line), NCI-N87 (HER2-positive gastric cancer cell line), T47D (HER2-negative breast cancer cell line), and HeLa (HER2-negative cervical cancer cell line). As a result, strong antiproliferative effects were generally observed in the NCI-N87 cell line (Table 2).
The antiproliferative effects of the candidate compound, resulting from HER2 inhibition, were evaluated. Specifically, to confirm the anticancer effects of the candidate compound, cancer cells were seeded at a density of 10^4 cells/well in a 96-well cell culture plate for 20 hours. The cells were starved in serum-free media for 4 hours, followed by replacement with media containing the compound at specified concentrations. The cells were then incubated for 72 hours under conditions of 5% CO2 at 37 °C. Cell viability was determined by adding 5 μL of EZ-CytoX to each well and measuring absorbance at 450 nm. The measurements were performed using an ELISA Microplate Reader (VersaMax, Molecular Devices).

Ki-67 = assay: JIMT-1 xenograft, Ki-67; assay type: in vivo, mice; conditions: 4 mg/kg, vs TZMB-treated group
Experimental: (§1) Xenograft mice were generated to evaluate the anticancer effects of the candidate compound. NCI-N87 and JIMT-1 cells (5×10^6 cells), dissolved in 100 μL of 1× phosphate-buffered saline (PBS), were subcutaneously injected into the right flanks of 5-week-old female athymic nude mice (Envigo, USA) or 4-week-old female NOD-SCID mice (Koatech, South Korea). When the tumors reached a volume of 90-100 mm^3, the mice were randomized into designated groups. For the NCI-N87 xenograft, intravenous administration was performed six times at 3-day intervals. For the JIMT-1 xenograft, intraperitoneal administration was performed eight times at 3-day intervals. […] Tumor size changes were monitored until the mean tumor size in the control group reached 2,000-2,500 mm^3. On day 28 for the NCI-N87 xenograft and day 46 for the JIMT-1 xenograft, the mice were sacrificed, and tumors were excised to determine relative tumor sizes. Tumor length (L) and width (W) were measured with calipers, and tumor volume was calculated using the formula: […]
For immunohistochemistry (IHC) analysis, tumors from the xenograft models were prepared as paraffin-embedded sections. […] The control group was counterstained with hematoxylin, and the IHC staining was evaluated under an optical microscope at 200× magnification.

PI3 Kinase (p110a/p85a) = PI3 Kinase (p110a/p85a) (Homo sapiens, UniProt P42336); assay: kinase profiling, PI3 kinase; assay type: biochemical; conditions: read-out: In vitro kinase inhibitory activity (%)
Sequence of PI3 Kinase (p110a/p85a) (P42336 whole entry): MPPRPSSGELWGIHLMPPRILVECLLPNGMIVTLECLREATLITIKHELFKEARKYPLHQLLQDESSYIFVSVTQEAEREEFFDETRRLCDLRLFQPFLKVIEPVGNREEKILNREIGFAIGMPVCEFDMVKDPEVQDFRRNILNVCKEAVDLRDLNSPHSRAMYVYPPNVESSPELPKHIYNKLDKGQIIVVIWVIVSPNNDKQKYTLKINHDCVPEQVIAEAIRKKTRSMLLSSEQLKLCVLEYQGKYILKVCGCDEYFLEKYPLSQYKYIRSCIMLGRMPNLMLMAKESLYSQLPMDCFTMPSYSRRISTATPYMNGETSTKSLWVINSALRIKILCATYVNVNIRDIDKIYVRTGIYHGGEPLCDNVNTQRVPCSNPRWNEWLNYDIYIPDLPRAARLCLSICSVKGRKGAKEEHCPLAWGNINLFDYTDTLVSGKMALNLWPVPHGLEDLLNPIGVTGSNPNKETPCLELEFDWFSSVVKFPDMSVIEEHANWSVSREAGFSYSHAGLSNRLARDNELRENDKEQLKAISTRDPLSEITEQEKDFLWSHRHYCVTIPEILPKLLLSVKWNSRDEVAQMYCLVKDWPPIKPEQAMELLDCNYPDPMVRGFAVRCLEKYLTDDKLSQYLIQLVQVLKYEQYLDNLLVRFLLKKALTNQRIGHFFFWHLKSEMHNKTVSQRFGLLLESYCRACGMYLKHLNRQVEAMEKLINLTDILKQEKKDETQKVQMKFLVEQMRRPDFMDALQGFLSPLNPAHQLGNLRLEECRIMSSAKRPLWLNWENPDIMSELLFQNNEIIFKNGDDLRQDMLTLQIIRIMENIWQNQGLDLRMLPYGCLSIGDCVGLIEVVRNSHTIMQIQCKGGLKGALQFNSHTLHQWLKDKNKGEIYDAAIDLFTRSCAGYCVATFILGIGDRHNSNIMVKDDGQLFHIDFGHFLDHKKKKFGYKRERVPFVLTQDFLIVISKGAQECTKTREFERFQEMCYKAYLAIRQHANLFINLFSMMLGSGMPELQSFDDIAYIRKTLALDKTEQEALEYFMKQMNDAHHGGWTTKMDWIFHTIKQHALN
Sequence of PI3 Kinase (p110a/p85a) (P27986 whole entry partner): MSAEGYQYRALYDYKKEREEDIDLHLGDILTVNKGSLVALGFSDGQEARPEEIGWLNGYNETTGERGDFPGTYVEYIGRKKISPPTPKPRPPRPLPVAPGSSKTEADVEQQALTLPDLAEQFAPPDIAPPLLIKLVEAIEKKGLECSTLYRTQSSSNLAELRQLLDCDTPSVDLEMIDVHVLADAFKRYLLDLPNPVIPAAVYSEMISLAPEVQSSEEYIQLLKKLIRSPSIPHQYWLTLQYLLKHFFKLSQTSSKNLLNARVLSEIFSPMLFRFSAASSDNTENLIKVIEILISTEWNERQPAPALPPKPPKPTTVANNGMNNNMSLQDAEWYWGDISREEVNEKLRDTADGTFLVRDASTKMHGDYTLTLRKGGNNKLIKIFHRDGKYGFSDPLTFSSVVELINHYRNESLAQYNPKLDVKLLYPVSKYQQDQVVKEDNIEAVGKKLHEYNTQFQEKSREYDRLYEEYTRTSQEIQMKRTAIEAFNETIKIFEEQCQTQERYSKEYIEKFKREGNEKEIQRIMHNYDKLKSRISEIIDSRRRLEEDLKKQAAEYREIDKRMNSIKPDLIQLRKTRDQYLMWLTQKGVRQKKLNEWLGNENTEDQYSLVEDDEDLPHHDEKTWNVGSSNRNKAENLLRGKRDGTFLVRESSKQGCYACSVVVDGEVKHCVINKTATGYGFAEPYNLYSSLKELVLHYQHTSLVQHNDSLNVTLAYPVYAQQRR
Experimental: Kinase inhibitory activity of the candidate compound at 10 μM and 25 μM was assessed using Eurofins Kinase Profiling Services. Inhibitory effects on c-RAF, EGFR, ErbB2, ErbB4, and PI3 kinase were analyzed according to the Kinase Profiler Service Assay protocol.

NCI-N87 xenograft = assay: NCI-N87 xenograft, tumor growth; assay type: in vivo, mice; conditions: 4 mg/kg, intravenous, six times at 3-day intervals
Experimental: as §1

[2] = tested on: HER2 and downstream signaling (phosphorylated AKT and MAPK); assay: HER2 expression and downstream signaling, TZMB-sensitive and -resistant cells; assay type: cell-based
Experimental: For western blot analysis, cells were seeded in a 6-well plate and lysed in 1×RIPA lysis buffer (Cell Signaling, USA) containing 1% 0.1 M [COMPOUND LEFT OUT] and 1% 100× protease inhibitor cocktail solution (Genedepot, USA). Total protein levels were standardized using the Pierce™ BCA Protein Assay Kit (Thermo Fisher Scientific, USA) and a microplate reader (Tecan Group Ltd., Switzerland). A total of 20 μg of protein was loaded onto a 10-15% SDS-PAGE acrylamide gel and transferred to a 0.2 μm PVDF membrane (Pall Life Science, USA). The membrane was blocked with 5% skim milk or 5% BSA, and the membrane was cultured with primary antibodies (purchased from Thermo Fisher, Cell Signaling, Santa Cruz, Novus, or MBL) at room temperature for 3 hours or overnight at 4 °C. The blot was washed three times with Tris-buffered saline containing 0.1% Tween20 (1×TBST) and incubated with an HRP-conjugated secondary antibody (GeneTex, USA). Protein bands were detected using ECL solution reagents (GE Healthcare, USA) and the LAS-3000 imaging system (Fuji Photo Film Co., Ltd., Japan), and captured images were analyzed using Multi-Gauge software (Fuji Photo Film Co. Ltd.). The preparation of cell lysates for subsequent analyses was performed using the same method as described for western blot analysis.
The ability of the candidate compound to overcome trastuzumab resistance was evaluated.

[3] = biological target: T2, (His)6-MED23391-582 / FITC-ELF3129-145 peptide (Homo sapiens, UniProt Q9ULK4); assay: fluorescence polarization displacement assay; assay type: binding
T2 construct: 391-582 and fluorescein isothiocyanate (FITC)-labeled
T2 sequence (Q9ULK4 391-582 limits assumed): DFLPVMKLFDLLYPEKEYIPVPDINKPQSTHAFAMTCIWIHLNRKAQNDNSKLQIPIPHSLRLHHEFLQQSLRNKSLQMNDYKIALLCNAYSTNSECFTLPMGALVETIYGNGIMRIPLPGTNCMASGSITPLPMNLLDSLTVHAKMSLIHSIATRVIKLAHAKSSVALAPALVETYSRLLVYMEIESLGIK
Experimental: The samples, adjusted to a final volume of 50 μL, were incubated at room temperature for 30 minutes. Kd values were calculated using a least-squares non-linear fit method with Prism 6.0 software (GraphPad Software, USA). FP signals were measured in millipolarization (mP) units using an Infinite F200 PRO microplate reader (Tecan Group Ltd., Switzerland) at an excitation wavelength of 485 nm and an emission wavelength of 535 nm. For displacement analysis, graded concentrations of YK1 and unlabeled ELF3137-144 peptides were mixed with 80 nM (His) 6-MED23391-582 and 10 nM FITC-ELF3129-145.
The effect of compound YK1 was confirmed by measuring the reduction in FP signals, using unlabeled peptides as a positive control. The IC50 of each compound was determined by fitting the data to a four-parameter logistic equation using the Table Curve 2D program (SPSS Inc.). The Ki value was calculated using the Cheng-Prusoff equation (Ki=IC50/1+([Ligand]/Kd))

T1 sequence (Q9ULK4 whole entry D400A/H449G): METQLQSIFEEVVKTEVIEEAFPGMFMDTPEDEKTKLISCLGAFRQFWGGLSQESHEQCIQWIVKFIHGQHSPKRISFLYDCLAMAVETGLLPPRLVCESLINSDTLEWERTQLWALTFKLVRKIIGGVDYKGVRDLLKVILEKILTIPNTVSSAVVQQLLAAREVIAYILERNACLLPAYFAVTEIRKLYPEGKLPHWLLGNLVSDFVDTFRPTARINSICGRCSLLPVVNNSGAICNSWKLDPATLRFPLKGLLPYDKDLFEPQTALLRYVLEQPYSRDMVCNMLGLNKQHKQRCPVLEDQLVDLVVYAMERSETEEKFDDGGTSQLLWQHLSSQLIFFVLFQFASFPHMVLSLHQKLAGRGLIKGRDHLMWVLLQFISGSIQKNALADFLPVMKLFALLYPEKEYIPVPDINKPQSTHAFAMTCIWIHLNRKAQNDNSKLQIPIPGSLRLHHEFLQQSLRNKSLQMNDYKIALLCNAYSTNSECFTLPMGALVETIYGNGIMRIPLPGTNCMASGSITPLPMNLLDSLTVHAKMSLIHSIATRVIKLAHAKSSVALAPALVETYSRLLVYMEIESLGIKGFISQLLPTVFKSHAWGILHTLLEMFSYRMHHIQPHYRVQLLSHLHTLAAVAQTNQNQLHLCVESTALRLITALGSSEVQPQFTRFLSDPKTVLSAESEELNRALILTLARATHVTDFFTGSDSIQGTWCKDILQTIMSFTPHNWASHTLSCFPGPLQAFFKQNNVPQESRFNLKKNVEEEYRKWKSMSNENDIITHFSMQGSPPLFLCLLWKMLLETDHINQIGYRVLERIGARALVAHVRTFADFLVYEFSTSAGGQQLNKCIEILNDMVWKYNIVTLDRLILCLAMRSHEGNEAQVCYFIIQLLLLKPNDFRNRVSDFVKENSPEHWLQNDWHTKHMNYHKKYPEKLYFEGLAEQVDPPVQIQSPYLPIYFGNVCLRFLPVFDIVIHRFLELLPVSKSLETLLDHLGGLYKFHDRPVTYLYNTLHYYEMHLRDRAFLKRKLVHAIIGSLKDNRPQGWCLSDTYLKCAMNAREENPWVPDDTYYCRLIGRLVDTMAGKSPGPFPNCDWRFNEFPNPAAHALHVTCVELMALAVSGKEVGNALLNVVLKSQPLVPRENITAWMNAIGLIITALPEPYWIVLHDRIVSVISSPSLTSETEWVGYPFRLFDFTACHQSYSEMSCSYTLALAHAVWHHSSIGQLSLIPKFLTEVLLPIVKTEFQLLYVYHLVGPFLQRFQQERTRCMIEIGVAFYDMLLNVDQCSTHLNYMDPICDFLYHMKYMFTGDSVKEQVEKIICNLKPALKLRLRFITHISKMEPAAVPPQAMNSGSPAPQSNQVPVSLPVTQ

IC50 ([1]; Homo sapiens, NCI-N87, HER2-positive): 1560 ± 140 nM | inhibition at 10 µM (PI3 Kinase (p110a/p85a); 10 μM): 3% | inhibition at 25 µM (PI3 Kinase (p110a/p85a); 25 μM): 17% | Ki ([3]; 80 nM (His)6-MED23391-582, 10 nM FITC-ELF3129-145, Cheng-Prusoff, read-out: PPI inhibitory activity calculated based on Ki value): 4270 ± 250 nM | decrease in FP signals ([3]; displacement of FITC-ELF3129-145 from MED23391-582): significant decrease in FP signals
Structure (SMILES): CC(=O)N1N=C(c2cccc(O)c2)CC1c1ccc(Cl)cc1 (stereo not shown) [Compound 15, 1-[5-(4-Chlorophenyl)-3-(3-hydroxyphenyl)-4,5-dihydropyrazol-1-yl]-ethanone]
binding to double mutant MED23 (MED23^D400A/H449G): unable to bind to the double mutant MED23^D400A/H449G | growth of NCI-N87 cells [1]: significantly inhibited the growth of NCI-N87 cells | proliferation marker Ki-67 (Ki-67): significantly reduced in the candidate compound-treated group compared to the TZMB-treated group | tumor volume / growth (NCI-N87 xenograft): tumor volume was significantly reduced, and tumor growth was delayed | HER2 expression and downstream signaling [2]: significantly downregulated HER2 expression and downstream signaling, including phosphorylated AKT and MAPK
